The experiment has as its system bone marrow erythroblasts. Nature of the experiment: Flow cytometry of bone marrow cells / erythroblast subsets (Ter119/CD71 double staining) of treated mice. It is filed as in vivo, mouse. The procedure: Wild-type mice with a genetic background of C57BL/6J were purchased from Charles River Laboratories, Inc. Mice at 8 to 14 weeks of age were used for analysis. For CLEU treatment (50 mg/body), a solution of cycloleucine (CLEU) was prepared by diluting cycloleucine (CLEU) (Sigma) in PBS (50 mg/ml), and 1 ml of the CLEU solution was administered intraperitoneally. For AKBA treatment (2 mg/body), 2 mg AKBA (Enzo Life Sciences)/20% DMSO/1 mL PBS solution was administered intraperitoneally. Vehicle without AKBA was used as a control. For measuring complete blood count of peripheral blood, peripheral blood was collected from facial veins and counted by use of an automated animal blood cell counter (microsemi LC-662). All of the experiments conducted in this study were approved by the Animal Experiment Committee of the Environmental Safety Committee of Tohoku University.
BM cells and spleen cells were harvested in a conventional manner. Cells were stained with combinations of antibodies specific to erythroblasts and mature cells, to thereby identify them. The cells were visualized with antibody and streptavidin-peridinin chlorophyll protein-cyanin 5.5. The antibodies used in this study were as follows: anti-CD3e (145-2C11), anti-CD4 (GK1.5 or RM4.5), anti-CD8a (53-6.7), anti-Gr-1 (RB6-8C5), anti-B220 (RA3-6B2), anti-Ter-119 (TER-119), anti-CD71 (R17217 or C2). Cells were stained with […] (Sigma), and dead cells were excluded from analysis. Flow cytometric analysis and cell sorting were performed according to the manufacturer's protocol using FACS AriaII (BD), and then the obtained data were analyzed using FlowJo software (TreeStar).
Additionally, MAT inhibitor PF9366 (PF) was administered to mice and the effect thereof was investigated. Vehicle (DMSO) (control (Ctrl)) or 10 mM PF9366 (prepared at a concentration of 40 μl/40 ml water) was provided in a drinking bottle (0 h). In addition, 80 μl of vehicle (DMSO) or 80 μl of 10 mM PF9366 dissolved in 1 ml PBS was also administered intraperitoneally at 0 h and 24 h. Analysis was carried out at Day 2 (48 h).
MAT inhibitor 3-acetyl-11-keto-β-boswellic acid (AKBA; 2 mg/body) was intraperitoneally administered to mice at 0 and 24 hours, and analyzed after 48 hours.
(A flow cytometer gives signals particle by particle.)

[1] abbreviates: PF9366 in drinking water plus i.p. at 0 h and 24 h, Day 2 (48 h), vs DMSO.

Take `CC(=O)O[C@@H]1CC[C@@]2(C)[C@@H](CC[C@]3(C)[C@@H]2C(=O)C=C2[C@@H]4[C@@H](C)[C@H](C)CC[C@]4(C)CC[C@]23C)[C@@]1(C)C(=O)O` [AKBA, 3-acetyl-11-keto-β-boswellic acid]: the maturation of erythroblasts entry (AKBA 2 mg/body i.p. at 0 and 24 hours, analyzed after 48 hours, Ter119/CD71 double staining, vs vehicle) was “significantly up-regulated”.
For the molecule `CN(C)CCc1nnc2cc(-c3ccccc3)c3cc(Cl)ccc3n12` [PF9366, 2-(7-chloro-5-phenyl-[1,2,4]triazolo[4,3-a]quinolin-1-yl)-N,N-dimethylethan-1-amine], the “subset from which the increase of erythroblast was initiated” value (PF9366 10 mM: 40 μl/40 ml drinking water plus 80 μl in 1 ml PBS i.p. at 0 h and 24 h, Day 2 (48 h), vs DMSO) is “initiated from subset III”. For the same molecule, under setting [1], the erythroblast maturation index entry is “significant difference” and the maturation of erythroblasts result is recorded as “significantly up-regulated”.

The record behind these values is patent US11554124B2, “Hematopoiesis-enhancing agent” (priority 2018, dated 2023).
